# In US11293023B2, “Tunable endogenous protein degradation” (Dana-Farber Cancer Institute, Inc., priority 2015, dated 2022):
# What was measured:
# Format in all cases: cell-based
# [1] = system: NIH3T3 cells expressing dTAG-KRASG12V; assay: Propidium iodide cell cycle analysis of NIH3T3 cells expressing dTAG-KRASG12V; conditions: 48 hours
# Procedure: FIG. 20 is a bar graph illustrating NIH3T3 cells expressing dTAG-KRASG12V treated with dFKBP7 and dFKBP13 for 48 hours to induce targeted dTAG-KRASG12V degradation. Fixed cells were stained with propidium iodide and cell cycle analysis was performed.
# NIH3T3 cells were engineered to express dTAG-KRASG12V. NIH3T3 cells expressing dTAG-KRASG12V were treated with dFKBP7 and dFKBP13 for 48 hours to induce targeted dTAG-KRASG12V degradation. Fixed cells were stained with propidium iodide and cell cycle analysis was performed.
# FKBP* fused to Nluc = biological target: T1, FKBP* fused to Nluc (Homo sapiens, UniProt P62942+Q96SW2, F37V); assay: Nluc/Fluc luciferase signal ratio assay of FKBP* degradation in 293FT cells; conditions: wild type or CRBN−/− 293FT cells, indicated concentrations, 4 hours
# T1 construct: expressed in transfected cells; host or cells: 293FT cells (wild type or CRBN-/-)
# Procedure: FIG. 5A and FIG. 5B are graphs measuring the activity of a panel of dFKBP heterobifunctional compounds in cells expressing FKBP* fused to Nluc. Degradation of FKBP* is measured as a signal ration (Nluc/Fluc) between NANOluc and firefly luciferase from the same multicistronic transcript in wild type (FIG. 7A) or CRBN−/− ([…]) 293FT cells treated with indicated concentrations of dFKBPs for 4 hours. A decrease in the signal ratio indicates FKBP* (Nluc) degradation.
# In an effort to identify potent and selective dFKPB heterobifunctional compounds, high throughput measurements of targeted FKBP* degradation were measured by surrogate levels of luciferase. Here, FKBP* is exogenously expressed as a multicistronic transcript with two types of luciferase: nano luciferase (NLuc) and firefly luciferase (FLuc) that allow for cell normalized quantification of FKBP* protein levels. Degradation of FKBP* is measured as a signal ration (Nluc/Fluc) in wild type (FIG. 4A) or CRBN−/− (FIG. 4B) 293FT cells treated with indicated concentrations of dFKBPs for 4 hours.
# [2] = system: KRAS signaling (pMEK and pAKT); assay: Immunoblot of downstream surrogates of KRAS signaling in NIH3T3 cells expressing dTAG-KRAS
# Procedure: FIG. 11 is an immunoblot of NIH3T3 cells expressing KRASG12V allele fused to FKBP* in the N-terminus or C-terminus. Cells were treated with 500 nM dFKBP7 for the indicated time. Cells were harvested and immunoblotted to measure degradation of FKBP*-KRASG12V and downstream surrogates of KRAS signaling (e.g. pMEK and pAKT).
# (§1) FIG. 12 is an immunoblot of NIH3T3 cells expressing FKBP* fused to the N-terminus of KRASG12V treated with 1 uM of the indicated dFKBP heterobifunctional compounds for 24 hours. Cells were harvested and immunoblotted to measure degradation of FKBP*-KRASG12V and downstream surrogates of KRAS signaling (e.g. pMEK and pAKT).
# as §1, with “FIG. 13” for “FIG. 12”, “with” for “with 1 uM of”, “indicated concentrations of dFKBP13” for “indicated dFKBP heterobifunctional compounds”
# FIG. 14 is an immunoblot of NIH3T3 cells expressing FKBP* fused to the N-terminus of KRASG12V treated with 1 uM dFKBP13 for the indicated time. Cells were harvested and immunoblotted to measure degradation of FKBP*-KRASG12V and downstream surrogates of KRAS signaling (e.g. pMEK and pAKT).
# Cells were treated with 500 nM dFKBP7 for the indicated time. Cells were harvested and immunoblotted to measure degradation of FKBP*-KRAS and downstream surrogates of KRAS signaling (e.g. pMEK and pAKT).
# In an effort to identify the best performing dFKBP molecule, dTAG-KRAS degradation was profiled across a series of dFKBP molecules. Western blotting of NIH3T3 cells expressing dTAG-KRASG12V were treated with 1 μM of the indicated dFKBP heterobifunctional compounds for 24 hours. Cells were harvested and immunoblotted to measure degradation of FKBP*-KRAS and downstream surrogates of KRAS signaling (e.g. pMEK and pAKT).
# Western blotting of NIH3T3 cells expressing FKBP* fused to the N-terminus of KRAS treated with the indicated concentrations of dFKBP13 for 24 hours. Cells were harvested and immunoblotted to measure degradation of FKBP*-KRAS and downstream surrogates of KRAS signaling (e.g. pMEK and pAKT).
# To evaluate the kinetic control of targeted degradation of dTAG-KRAS, dFKBP13 was administered by increased duration. Western blotting of NIH3T3 cells expressing FKBP* fused to the N-terminus of KRAS treated with 1 μM dFKBP13 for the indicated time. Cells were harvested and immunoblotted to measure degradation of FKBP*-KRAS and downstream surrogates of KRAS signaling (e.g. pMEK and pAKT).
# (§2) The dFKBP13 heterobifunctional compound potently degrades dTAG-KRAS mutant alleles. NIH3T3 cells were engineered to express KRAS alleles either WT or mutant forms of amino acid glycine 12 (G12C, G12D, and G12V). Western blotting of NIH3T3 cells expressing dTAG fused to the N-terminus of KRAS alleles were treated with 1 uM of dFKBP13 for 24 hours. Cells were harvested and immunoblotted to measure degradation of dTAG-KRAS and downstream surrogates of KRAS signaling (e.g. pMEK and pAKT).
# as §2, with “express” for “express KRAS alleles”, “KRAS alleles (G13D, Q61L,” for “forms of amino acid glycine 12 (G12C, G12D,”, “Q61R).” for “G12V).”
# [3] = system: NIH3T3 cells expressing FKBP*-KRASG12V; assay: Phase contrast imaging of NIH3T3 cells expressing dTAG-KRAS; conditions: NIH3T3 overexpressing dTAG-KRAS, 24 hours
# Procedure: FIG. 18A, FIG. 18B, FIG. 18C, and FIG. 18D are panels of phase contrast images of control NIH3T3 cells or NIH3T3 expressing FKBP* fused to the N-terminus of KRASG12V treated with DMSO of dFKBP13 for 24 hours.
# T1 sequence (P62942 2-108 F37V limits assumed): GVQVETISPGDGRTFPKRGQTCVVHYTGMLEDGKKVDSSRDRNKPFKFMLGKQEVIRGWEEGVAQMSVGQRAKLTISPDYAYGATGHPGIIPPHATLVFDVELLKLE
# T1 sequence (Q96SW2 whole entry, the tested form may be a part): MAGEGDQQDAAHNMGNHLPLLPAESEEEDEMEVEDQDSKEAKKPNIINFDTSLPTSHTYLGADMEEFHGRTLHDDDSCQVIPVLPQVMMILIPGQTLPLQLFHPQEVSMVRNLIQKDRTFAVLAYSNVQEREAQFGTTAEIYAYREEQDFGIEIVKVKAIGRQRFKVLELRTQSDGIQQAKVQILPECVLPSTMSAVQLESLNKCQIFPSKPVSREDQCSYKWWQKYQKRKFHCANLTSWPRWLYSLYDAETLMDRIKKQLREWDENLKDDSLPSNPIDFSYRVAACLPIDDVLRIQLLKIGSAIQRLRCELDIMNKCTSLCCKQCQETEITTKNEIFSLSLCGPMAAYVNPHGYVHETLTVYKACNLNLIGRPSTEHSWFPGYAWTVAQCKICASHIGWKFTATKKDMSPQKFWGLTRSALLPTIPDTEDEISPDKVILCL
# T1 sequence (Q16531 whole entry partner, the tested form may be a part): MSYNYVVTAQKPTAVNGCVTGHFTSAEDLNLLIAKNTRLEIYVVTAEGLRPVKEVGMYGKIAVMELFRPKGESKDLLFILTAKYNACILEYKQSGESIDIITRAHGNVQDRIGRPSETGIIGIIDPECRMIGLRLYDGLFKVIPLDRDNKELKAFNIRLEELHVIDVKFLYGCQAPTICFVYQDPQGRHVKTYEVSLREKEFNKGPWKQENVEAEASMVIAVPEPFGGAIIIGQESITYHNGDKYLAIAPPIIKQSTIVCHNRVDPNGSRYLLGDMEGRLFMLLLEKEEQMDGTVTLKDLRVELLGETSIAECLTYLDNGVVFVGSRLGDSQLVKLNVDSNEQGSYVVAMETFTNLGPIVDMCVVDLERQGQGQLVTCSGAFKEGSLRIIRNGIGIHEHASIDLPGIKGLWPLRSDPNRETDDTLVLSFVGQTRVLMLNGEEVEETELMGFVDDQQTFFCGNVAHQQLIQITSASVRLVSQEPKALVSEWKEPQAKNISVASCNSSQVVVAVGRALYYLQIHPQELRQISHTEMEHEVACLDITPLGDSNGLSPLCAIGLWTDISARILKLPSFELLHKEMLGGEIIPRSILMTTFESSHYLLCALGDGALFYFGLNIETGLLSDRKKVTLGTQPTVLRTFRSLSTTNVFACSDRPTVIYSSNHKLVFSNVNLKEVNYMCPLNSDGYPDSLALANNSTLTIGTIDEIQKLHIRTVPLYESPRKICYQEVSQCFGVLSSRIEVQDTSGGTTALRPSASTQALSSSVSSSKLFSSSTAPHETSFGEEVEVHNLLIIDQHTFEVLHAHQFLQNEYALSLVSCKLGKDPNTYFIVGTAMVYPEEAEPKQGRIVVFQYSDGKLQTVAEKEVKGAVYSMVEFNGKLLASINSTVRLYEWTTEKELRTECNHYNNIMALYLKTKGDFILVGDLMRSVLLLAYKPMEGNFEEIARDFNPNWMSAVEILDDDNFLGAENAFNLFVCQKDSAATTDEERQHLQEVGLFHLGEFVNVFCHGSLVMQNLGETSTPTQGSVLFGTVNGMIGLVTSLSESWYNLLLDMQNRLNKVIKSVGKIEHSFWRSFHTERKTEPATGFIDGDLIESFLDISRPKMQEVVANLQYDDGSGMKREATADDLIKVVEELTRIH
Structure (SMILES),cell cycle profile (S-phase entry) [1],FKBP* degradation as signal ratio (Nluc/Fluc) (FKBP* fused to Nluc),"p-AKT signal ([2]; NIH3T3 N-terminal dTAG-KRAS, 500 nM, indicated time)",cell morphology [3],"downstream signaling (pMEK and pAKT) ([2]; NIH3T3 FKBP*-KRASG12V, 1 uM, 24 hours)","time to inhibition of downstream signaling ([2]; NIH3T3 FKBP*-KRASG12V, 1 uM, post treatment) [h]","downstream signaling (pMEK and pAKT) ([2]; NIH3T3 dTAG-KRAS WT, G12C, G12D, G12V, 1 uM, 24 hours)","downstream signaling (pMEK and pAKT) ([2]; NIH3T3 dTAG-KRAS WT, G13D, Q61L, Q61R, 1 uM, 24 hours)","IC50 ([2]; read-out: IC50 of inhibition of downstream signaling, NIH3T3 FKBP*-KRASG12V, 24 hours) [nM]"
CC[C@H](C(=O)N1CCCC[C@H]1C(=O)O[C@H](CCc1ccc(OC)c(OC)c1)c1cccc(OCC(=O)NCCCOCCOCCOCCCNC(=O)COc2cccc3c2C(=O)N(C2CCC(=O)NC2=O)C3=O)c1)c1cc(OC)c(OC)c(OC)c1 (stereo partly shown) [dFKBP7],diminished S-phase entry,effectively degrade FKBP* in a cereblon dependent manner,downstream decrease in p-AKT signal,–,–,–,–,–,–
CC[C@H](C(=O)N1CCCC[C@H]1C(=O)O[C@H](CCc1ccc(OC)c(OC)c1)c1cccc(OCC(=O)NCCCCCCOc2cccc3c2C(=O)N(C2CCC(=O)NC2=O)C3=O)c1)c1cc(OC)c(OC)c(OC)c1 (stereo partly shown) [dFKBP13],diminished S-phase entry,–,–,morphologically revert back to the wild type (DMSO control) state,inhibition of downstream signaling,≤ 1,potently inhibits downstream signaling,potently inhibits downstream signaling,> 100
